Results from patent US8399459B2, “1,4 oxazines as BACE1 and/or BACE2 inhibitors” (Hoffmann-La Roche Inc., priority 2011, dated 2013).

Target: T1, BACE2 (Rattus norvegicus, UniProt Q6IE75)
T1 construct: endogenous cellular BACE2 in the Ins1e rat cell line; endogenous in cells; host or cells: INS-TMEM27 (INS1e-derived rat cell line with doxycycline-inducible full-length human TMEM27)
T1 sequence (Q6IE75 63-514): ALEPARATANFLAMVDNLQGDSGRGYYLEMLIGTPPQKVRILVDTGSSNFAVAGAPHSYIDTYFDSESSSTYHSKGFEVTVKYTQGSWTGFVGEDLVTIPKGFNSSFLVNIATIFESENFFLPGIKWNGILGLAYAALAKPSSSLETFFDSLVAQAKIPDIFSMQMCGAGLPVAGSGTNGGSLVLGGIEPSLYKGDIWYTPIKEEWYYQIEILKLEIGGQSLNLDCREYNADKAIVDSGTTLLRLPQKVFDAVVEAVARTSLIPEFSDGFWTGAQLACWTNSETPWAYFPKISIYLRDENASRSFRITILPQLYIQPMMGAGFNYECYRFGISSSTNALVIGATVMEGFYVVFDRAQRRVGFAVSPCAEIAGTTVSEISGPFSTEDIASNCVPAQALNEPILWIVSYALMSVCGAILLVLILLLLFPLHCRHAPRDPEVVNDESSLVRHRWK
Assay: Assay for BACE inhibition by measuring cellular TMEM27 cleavage (INS-TMEM27 cells, ELISA)
Type: cell-based
Conditions: INS-TMEM27 (INS1e-derived) cells; shed TMEM27 by ELISA
From the text: Assay for BACE Inhibition by Measuring Cellular TMEM27 Cleavage:
The assay uses the principle of inhibition of human TMEM27 cleavage by endogenous cellular BACE2 in the Ins1e rat cell line and shedding from the cell surface into the culture medium, followed by detection in an ELISA assay. Inhibition of BACE2 prevents the cleavage and shedding in a dose-dependent manner.
The stable cell line “INS-TMEM27” represents an INS1e-derived cell line with inducible expression (using the TetOn system) of full-length hTMEM27 in a doxycycline-dependent manner. The cells are cultured throughout the experiment in RPMI1640+Glutamax (Invitrogen) Penicillin/Streptomycin, 10% Fetal bovine serum, […], […], 100 micrograms/ml G418 and 100 microgram/ml hygromycin and are grown inadherent culture at 37° C. in a standard CO2 cell culture incubator.
INS-TMEM27 cells are seeded in 96-well plates. After 2 days in culture, BACE2 inhibitor is added in a range of concentrations as required by the assay and after a further two hours, doxycycline is added to a final concentration of 500 ng/ml. The cells are incubated for a further 46 hours and the supernatant harvested for detection of shed TMEM27.
An ELISA assay (using a pair of mouse anti-human-TMEM27 antibodies, raised against the extracellular domain of TMEM27) is used for detection of TMEM27 in the culture medium. An EC50 for BACE2 inhibition is calculated using the ELISA readout for each inhibitor concentration with standard curve-fitting software such as XLFit for the Excel spreadsheet program.

- IC50: 470 nM
SMILES: CC1(c2cccc(-c3cc(Cl)cc(Cl)c3)c2)COCC(N)=N1 (stereo not shown) [Example 32, 5-(3′,5′-Dichloro-biphenyl-3-yl)-5-methyl-5,6-dihydro-2H-[1,4]oxazin-3-ylamine]
